Laboratory results published in patent US11377442B2, “Small molecule agonists and antagonists of NR2F6 activity” (ZANDER THERAPEUTICS, INC., priority 2016, dated 2022).
Values joined by “and” are separate entries in the source; they are usually repeats but may differ in a detail not shown here. Equal entries are not always repeated. Where two headings read alike, the source gives them in different places.

Tests used:
[1] = Caco-2 permeability assay; format: in vitro ADME; conditions: human
Method: (§1) A Caco-2 permeability assay was performed on Compound D136.

[2] = tested on: Caco-2; test: Caco-2 permeability assay; format: in vitro ADME
Method: as §1

[3] = mouse, in vivo
[4] = tested on: Renilla; test: Renilla signal, LBD, cmpd/DMSO (NR2F6 LBD transfected cells); format: cell-based
[5] = tested on: Renilla; test: Renilla signal in NR2F6 agonist screening, cmpd/DMSO; format: cell-based; conditions: Renilla
[6] = tested on: HEK293 pGL4; test: Firefly_pGL signal, cmpd/DMSO (pGL4 control cells); format: cell-based; conditions: Homo sapiens
[7] = biological target: T1, NR2F6 (Homo sapiens, UniProt P10588); test: NR2F6 agonist screening, Firefly signal cmpd/DMSO; format: cell-based
T1 construct: expressed in transfected cells; also transient transfection
T1 sequence (P10588 1-404): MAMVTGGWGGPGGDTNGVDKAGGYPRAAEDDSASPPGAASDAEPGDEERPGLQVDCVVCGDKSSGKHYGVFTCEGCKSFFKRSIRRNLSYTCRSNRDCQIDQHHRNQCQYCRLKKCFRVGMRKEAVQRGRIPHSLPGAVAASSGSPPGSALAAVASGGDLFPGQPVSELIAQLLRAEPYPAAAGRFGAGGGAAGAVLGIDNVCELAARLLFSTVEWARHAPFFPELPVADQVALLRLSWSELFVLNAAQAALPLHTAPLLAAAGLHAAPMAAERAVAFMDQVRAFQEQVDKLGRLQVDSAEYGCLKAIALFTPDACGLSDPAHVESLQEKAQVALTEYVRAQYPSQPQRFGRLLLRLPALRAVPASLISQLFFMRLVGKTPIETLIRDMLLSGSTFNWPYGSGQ

[8] = biological target: T2, NR2F6 LBD (Homo sapiens, UniProt P10588); test: NR2F6 LBD transient transfection; format: cell-based
T2 construct: expressed in transfected cells
T2 sequence (P10588 165-393 limits assumed): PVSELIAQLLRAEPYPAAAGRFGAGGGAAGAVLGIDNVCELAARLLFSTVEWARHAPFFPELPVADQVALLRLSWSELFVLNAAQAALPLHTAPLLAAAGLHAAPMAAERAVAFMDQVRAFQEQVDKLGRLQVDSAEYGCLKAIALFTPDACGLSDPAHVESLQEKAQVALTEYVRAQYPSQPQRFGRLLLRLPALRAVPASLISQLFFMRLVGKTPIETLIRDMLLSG
Outline: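 LBD-transfected cells treated at 40, 10, 2 and 0.5 μM (4 replicates); cytotoxicity measured in parallel, normalized to DMSO (0%) and zero signal (100%). Higher concentrations excluded where signal loss reflected toxicity.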

[9] = read-out: Renilla F4, cmpd/DMSO (mean)
[10] = F4, 1% FBS, read-out: Renilla, F4, 1% FBS, cmpd/DMSO (mean)
[11] = F4, 10% FBS, read-out: Renilla, F4, 10% FBS, cmpd/DMSO (mean)

## COCCN[C@H]1CS(=O)(=O)C[C@@H]1S(=O)(=O)c1ccc(Cl)cc1 [Compound D136]
[1]; Caco-2, Mean
  Papp A→B: 34.2 ×10⁻⁶ cm/s
  Papp B→A: 51.1 ×10⁻⁶ cm/s
[1]; Caco-2, individual replicates
  Papp A→B: 33.6 ×10⁻⁶ cm/s
  Papp B→A: 47.9 ×10⁻⁶ cm/s
[2]
  Caco-2 permeability: highly permeable
[2]; individual replicates
  Papp A-B: 36.0 10^−6 cm/s and 33.1 10^−6 cm/s
  Papp B-A: 54.6 10^−6 cm/s and 50.9 10^−6 cm/s
[3]
  MTD and acute toxicity: no toxicity was observed
[4]; 0.5 uM
  Renilla LBD, cmpd/DMSO (mean): 1.1
[4]; 2 uM
  Renilla LBD, cmpd/DMSO (mean): 1.0
[4]; 10 uM
  Renilla LBD, cmpd/DMSO (mean): 1.0
[4]; 40 uM
  Renilla LBD, cmpd/DMSO (mean): 0.6
[5]; [9]
  fold induction at 0.5 µM: 0.9
  fold induction at 2 µM: 1.1
  fold induction at 10 µM: 1.4
  fold induction at 40 µM: 1.7
[5]; [10]
  fold induction at 0.5 µM: 1.1
  fold induction at 2 µM: 1.1
  fold induction at 10 µM: 1.5
  fold induction at 40 µM: 2.4
[5]; [11]
  fold induction at 0.5 µM: 0.9
  fold induction at 2 µM: 0.9
  fold induction at 10 µM: 1.2
  fold induction at 40 µM: 3.3
[6]; HEK293, 0.5 uM, read-out: Firefly pGL4, cmpd/DMSO (mean)
  fold induction at 0.5 µM: 1.1
[6]; HEK293, 2 uM, read-out: Firefly pGL4, cmpd/DMSO (mean)
  fold induction at 2 µM: 1
[6]; HEK293, 10 uM, read-out: Firefly pGL4, cmpd/DMSO (mean)
  fold induction at 10 µM: 1.8
[6]; HEK293, 40 uM, read-out: Firefly pGL4, cmpd/DMSO (mean)
  fold induction at 40 µM: 2.6
[6]; HEK293, pGL4, 1% FBS, 0.5 uM, read-out: Firefly, pGL4, 1% FBS, cmpd/DMSO (mean)
  fold induction at 0.5 µM: 1.1
[6]; HEK293, pGL4, 1% FBS, 2 uM, read-out: Firefly, pGL4, 1% FBS, cmpd/DMSO (mean)
  fold induction at 2 µM: 0.9
[6]; HEK293, pGL4, 1% FBS, 10 uM, read-out: Firefly, pGL4, 1% FBS, cmpd/DMSO (mean)
  fold induction at 10 µM: 1.3
[6]; HEK293, pGL4, 1% FBS, 40 uM, read-out: Firefly, pGL4, 1% FBS, cmpd/DMSO (mean)
  fold induction at 40 µM: 1.6
[6]; HEK293, pGL4, 10% FBS, 0.5 uM, read-out: Firefly, pGL4, 10% FBS, cmpd/DMSO (mean)
  fold induction at 0.5 µM: 1.3
[6]; HEK293, pGL4, 10% FBS, 2 uM, read-out: Firefly, pGL4, 10% FBS, cmpd/DMSO (mean)
  fold induction at 2 µM: 1.1
[6]; HEK293, pGL4, 10% FBS, 10 uM, read-out: Firefly, pGL4, 10% FBS, cmpd/DMSO (mean)
  fold induction at 10 µM: 1.8
[6]; HEK293, pGL4, 10% FBS, 40 uM, read-out: Firefly, pGL4, 10% FBS, cmpd/DMSO (mean)
  fold induction at 40 µM: 3.8
[7]; 0.5 uM
  Firefly F4, cmpd/DMSO (mean): 1.5
[7]; 2 uM
  Firefly F4, cmpd/DMSO (mean): 1.1
[7]; 10 uM
  Firefly F4, cmpd/DMSO (mean): 2.7
[7]; 40 uM
  Firefly F4, cmpd/DMSO (mean): 5.2
[7]; 1% FBS, 40 uM
  F4, Firefly/Renilla for S/B(F4) > 3: 3.1
  Firefly, F4/pGL4 for S/B(F4) > 3: 4.7
  Firefly, F4, 1% FBS, cmpd/DMSO (mean): 7.4
[7]; 10% FBS, 40 uM
  F4, Firefly/Renilla for S/B(F4) > 3: 3.5
  Firefly, F4/pGL4 for S/B(F4) > 3: 3.0
  Firefly, F4, 10% FBS, cmpd/DMSO (mean): 12
[7]; 1% FBS, 0.5 uM
  Firefly, F4, 1% FBS, cmpd/DMSO (mean): 0.8
[7]; 1% FBS, 2 uM
  Firefly, F4, 1% FBS, cmpd/DMSO (mean): 1.0
[7]; 1% FBS, 10 uM
  Firefly, F4, 1% FBS, cmpd/DMSO (mean): 2.4
[7]; 10% FBS, 0.5 uM
  Firefly, F4, 10% FBS, cmpd/DMSO (mean): 0.4
[7]; 10% FBS, 2 uM
  Firefly, F4, 10% FBS, cmpd/DMSO (mean): 1.4
[7]; 10% FBS, 10 uM
  Firefly, F4, 10% FBS, cmpd/DMSO (mean): 1.9
[7]; cellular assays
  activation of full-length NR2F6: Activates
[8]; 0.5 uM
  Firefly LBD, cmpd/DMSO (mean): 1.0
[8]; 2 uM
  Firefly LBD, cmpd/DMSO (mean): 1.5
[8]; 10 uM
  Firefly LBD, cmpd/DMSO (mean): 2.6
[8]; 40 uM
  Firefly LBD, cmpd/DMSO (mean): 2.9
[8]; cellular assays
  activation of ligand binding domain-only NR2F6: Activates
